Data reported in article PMC12669672, “Structural insights into selective and dual antagonism of EP2 and EP4 prostaglandin receptors” (The EMBO Journal, 2025).
“And” between values parts separate entries of the source, which are not always exact repeats. Identical values can stand only once. Like-named read-outs stand apart in the source and are kept apart here.

Experiments:
Assay in all cases: GloSensor cAMP assay, inhibition of constitutive activity
Type in all cases: cell-based
[1] = target: T1, constitutively active EP4 WT (Homo sapiens, UniProt P35408)
T1 construct: The full-length EP2 or EP4 was cloned into the pcDNA3.1 vector (Invitrogen), incorporating an N-terminal FLAG tag; expressed in transfected cells; host or cells: AD293
Description: (§1) The full-length EP2 or EP4 was cloned into the pcDNA3.1 vector (Invitrogen), incorporating an N-terminal FLAG tag. AD293 cells were seeded in six-well plates containing DMEM supplemented with 10% dialyzed FBS 1 day prior to transfection. Following overnight growth, cells were transfected with a 1:1 ratio of receptor construct and GloSensor22F cAMP biosensor (Promega) plasmids.
(§2) Twenty-four hours post-transfection, the cells were transferred to CO2-independent media containing 2% GloSensor cAMP Reagent (Promega) and distributed into 384-well assay plates at a density of 4000 cells per well in 10 μL. […] The plates were then incubated at 37 °C for an additional hour before luminescence measurements were taken using an EnVision plate reader.
(§3) Data analysis was performed using GraphPad Prism software v8.0.1. A nonlinear regression analysis, employing a sigmoidal dose–response model, was conducted to determine the Emax values and half-maximum inhibitory concentrations (IC50) for each compound tested.

[2] = target: T2, constitutively active EP4 S319A (Homo sapiens, UniProt P35408, S319A)
T2 construct: The full-length EP2 or EP4 was cloned into the pcDNA3.1 vector (Invitrogen), incorporating an N-terminal FLAG tag; expressed in transfected cells; host or cells: AD293
Description: as §1, §2, §3

[3] = target: T3, constitutively active EP4 V72A (Homo sapiens, UniProt P35408, V72A)
T3 construct: The full-length EP2 or EP4 was cloned into the pcDNA3.1 vector (Invitrogen), incorporating an N-terminal FLAG tag; expressed in transfected cells; host or cells: AD293
Description: as §1, §2, §3

[4] = target: T4, constitutively active EP2 S305A (Homo sapiens, UniProt P43116, S305A)
T4 construct: The full-length EP2 or EP4 was cloned into the pcDNA3.1 vector; FLAG (N); expressed in transfected cells; host or cells: AD293 cells
Description: as §1, §2, §3

[5] = target: T5, constitutively active EP2 WT (Homo sapiens, UniProt P43116)
T5 construct: The full-length EP2 or EP4 was cloned into the pcDNA3.1 vector; FLAG (N); expressed in transfected cells; host or cells: AD293 cells
Description: as §1, §2, §3

[6] = target: T6, constitutively active EP2 S308A (Homo sapiens, UniProt P43116, S308A)
T6 construct: The full-length EP2 or EP4 was cloned into the pcDNA3.1 vector; FLAG (N); expressed in transfected cells; host or cells: AD293 cells
Description: as §1, §2, §3

[7] = no PGE2, pIC50 mutant - pIC50 WT, mean

T5 sequence (P43116 whole entry): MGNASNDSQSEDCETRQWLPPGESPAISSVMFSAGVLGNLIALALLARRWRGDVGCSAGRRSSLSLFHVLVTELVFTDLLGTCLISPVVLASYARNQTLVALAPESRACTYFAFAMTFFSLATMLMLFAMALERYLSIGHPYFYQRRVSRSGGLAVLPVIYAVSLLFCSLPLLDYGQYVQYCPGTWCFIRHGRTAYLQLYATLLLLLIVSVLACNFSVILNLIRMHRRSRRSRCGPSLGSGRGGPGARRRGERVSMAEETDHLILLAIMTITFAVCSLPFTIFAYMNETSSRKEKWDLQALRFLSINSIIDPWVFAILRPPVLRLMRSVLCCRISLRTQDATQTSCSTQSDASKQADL
T2 sequence (P35408 whole entry S319A): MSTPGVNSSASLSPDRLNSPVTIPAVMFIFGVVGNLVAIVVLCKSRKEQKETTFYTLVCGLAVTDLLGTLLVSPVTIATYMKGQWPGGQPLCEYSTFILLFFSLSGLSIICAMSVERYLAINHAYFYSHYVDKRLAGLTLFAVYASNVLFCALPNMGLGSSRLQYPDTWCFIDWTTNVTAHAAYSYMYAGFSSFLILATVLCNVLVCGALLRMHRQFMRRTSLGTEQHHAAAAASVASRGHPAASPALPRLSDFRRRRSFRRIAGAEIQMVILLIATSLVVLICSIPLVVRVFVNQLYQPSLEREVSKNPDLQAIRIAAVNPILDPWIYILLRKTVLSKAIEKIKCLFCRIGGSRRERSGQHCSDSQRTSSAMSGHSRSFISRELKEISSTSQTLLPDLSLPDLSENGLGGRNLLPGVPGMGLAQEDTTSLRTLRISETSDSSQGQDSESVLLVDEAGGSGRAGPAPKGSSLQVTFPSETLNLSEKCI
T3 sequence (P35408 whole entry V72A): as the sequence (P35408 whole entry S319A) above, with V72A, A319S counted along it
T1 sequence (P35408 whole entry): as the sequence (P35408 whole entry S319A) above, with A319S counted along it
T6 sequence (P43116 whole entry S308A): as the sequence (P43116 whole entry) above, with S308A counted along it
T4 sequence (P43116 whole entry S305A): as the sequence (P43116 whole entry) above, with S305A counted along it

An IC50 [1] of 5010 nM, a remaining activity at 100 µM ([1]; 1 h, TG6-129 log([M]) -4.00, EP4-WT, read-out: % cAMP activity (normalized to WT)) of 7.78% and a remaining activity at […] ([1]; 1 h, TG6-129 log([M]) -4.70, EP4-WT, read-out: % cAMP activity (normalized to WT)) of 22.1% were found for `CCc1nnc(NS(=O)(=O)c2ccc(NC(=S)NC(=O)/C=C/c3ccc(F)cc3)cc2)s1` [TG6-129] in this work. It also gave a remaining activity at […] ([1]; 1 h, TG6-129 log([M]) -5.40, EP4-WT, read-out: % cAMP activity (normalized to WT)) of 65.6%, a remaining activity at […] ([1]; 1 h, TG6-129 log([M]) -6.10, EP4-WT, read-out: % cAMP activity (normalized to WT)) of 88.8% and a remaining activity at 0.1585 µM ([1]; 1 h, TG6-129 log([M]) -6.80, EP4-WT, read-out: % cAMP activity (normalized to WT)) of 91.8%. It also gave a remaining activity at 0.03236 µM ([1]; 1 h, TG6-129 log([M]) -7.49, EP4-WT, read-out: % cAMP activity (normalized to WT)) of 96%, a remaining activity at 0.006457 µM ([1]; 1 h, TG6-129 log([M]) -8.19, EP4-WT, read-out: % cAMP activity (normalized to WT)) of 103% and a remaining activity at 0.001288 µM ([1]; 1 h, TG6-129 log([M]) -8.89, EP4-WT, read-out: % cAMP activity (normalized to WT)) of 106%. The “TG6-129 cAMP activity (∆pIC50 from EP4 WT)” value ([1]; WT, single experiments 1st-3rd) was -0.065 and 0.051 and 0.101, the IC50 [2] was 20000 nM and the remaining activity at 100 µM ([2]; 1 h, TG6-129 log([M]) -4.00, EP4-S319A, read-out: % cAMP activity (normalized to WT)) was 6.8%. It also gave a remaining activity at […] ([2]; 1 h, TG6-129 log([M]) -4.70, EP4-S319A, read-out: % cAMP activity (normalized to WT)) of 46.6%, a remaining activity at 0.006457 µM ([2]; 1 h, TG6-129 log([M]) -8.19, EP4-S319A, read-out: % cAMP activity (normalized to WT)) of 114% and a remaining activity at 0.001288 µM ([2]; 1 h, TG6-129 log([M]) -8.89, EP4-S319A, read-out: % cAMP activity (normalized to WT)) of 108%. For the same compound, the “TG6-129 cAMP activity (∆pIC50 from EP4 WT), Mean” value ([2]; S319A, Mean) was -0.460, the “TG6-129 cAMP activity (∆pIC50 from EP4 WT)” value ([2]; S319A, single experiments 1st-3rd) was -0.435 and -0.502 and -0.443 and the ΔpIC50 [2, 7] was -0.46 ± 0.02. The IC50 [3] was 18600 nM, the remaining activity at 100 µM ([3]; 1 h, TG6-129 log([M]) -4.00, EP4-V72A, read-out: % cAMP activity (normalized to WT)) was 9.67% and the remaining activity at […] ([3]; 1 h, TG6-129 log([M]) -4.70, EP4-V72A, read-out: % cAMP activity (normalized to WT)) was 26.1%. For the same compound, the remaining activity at […] ([3]; 1 h, TG6-129 log([M]) -5.40, EP4-V72A, read-out: % cAMP activity (normalized to WT)) was 41.3%, the remaining activity at […] ([3]; 1 h, TG6-129 log([M]) -6.10, EP4-V72A, read-out: % cAMP activity (normalized to WT)) was 40.6% and the remaining activity at 0.1585 µM ([3]; 1 h, TG6-129 log([M]) -6.80, EP4-V72A, read-out: % cAMP activity (normalized to WT)) was 44.9%. The remaining activity at 0.03236 µM ([3]; 1 h, TG6-129 log([M]) -7.49, EP4-V72A, read-out: % cAMP activity (normalized to WT)) was 51.4%, the remaining activity at 0.006457 µM ([3]; 1 h, TG6-129 log([M]) -8.19, EP4-V72A, read-out: % cAMP activity (normalized to WT)) was 46.4% and the remaining activity at 0.001288 µM ([3]; 1 h, TG6-129 log([M]) -8.89, EP4-V72A, read-out: % cAMP activity (normalized to WT)) was 40.4%. For the same compound, the “TG6-129 cAMP activity (∆pIC50 from EP4 WT), Mean” value ([3]; V72A, Mean) was -0.480, the “TG6-129 cAMP activity (∆pIC50 from EP4 WT)” value ([3]; V72A, single experiments 1st-3rd) was -0.475 and -0.451 and -0.514 and the ΔpIC50 [3, 7] was -0.48 ± 0.02. For the same compound, the IC50 [4] was 50.1 nM, the “TG6-129 cAMP activity (∆pIC50 from EP2 WT), Mean” value ([4]; S305A, Mean) was 0.384 and the ΔpIC50 [4, 7] was 0.38 ± 0.10. For the same compound, the IC50 [5] was 87.1 nM, the remaining activity at 10 µM ([5]; 1 h, TG6-129 log([M]) -5, EP2-WT, read-out: % cAMP activity (normalized to WT)) was 3.2% and the remaining activity at 1 µM ([5]; 1 h, TG6-129 log([M]) -6, EP2-WT, read-out: % cAMP activity (normalized to WT)) was 6.32%. For the same compound, the remaining activity at 0.1 µM ([5]; 1 h, TG6-129 log([M]) -7, EP2-WT, read-out: % cAMP activity (normalized to WT)) was 34.4%, the remaining activity at 0.001 µM ([5]; 1 h, TG6-129 log([M]) -9, EP2-WT, read-out: % cAMP activity (normalized to WT)) was 94.3% and the remaining activity at 0.0001 µM ([5]; 1 h, TG6-129 log([M]) -10, EP2-WT, read-out: % cAMP activity (normalized to WT)) was 104%. The remaining activity at 10 pM ([5]; 1 h, TG6-129 log([M]) -11, EP2-WT, read-out: % cAMP activity (normalized to WT)) was 100%, the remaining activity at 1 pM ([5]; 1 h, TG6-129 log([M]) -12, EP2-WT, read-out: % cAMP activity (normalized to WT)) was 88.6% and the “TG6-129 cAMP activity (∆pIC50 from EP2 WT)” value ([5]; WT, single experiments 1st-3rd) was -0.062 and 0.053 and 0.096. For the same compound, the IC50 [6] was 58.9 nM, the remaining activity at 0.0001 µM ([6]; 1 h, TG6-129 log([M]) -10, EP2-S308A, read-out: % cAMP activity (normalized to WT)) was 87.7% and the “TG6-129 cAMP activity (∆pIC50 from EP2 WT), Mean” value ([6]; S308A, Mean) was 0.246.
